US9128100B2, “Non-invasive diagnostic method for the evaluation of intestinal lactase deficiency (hypolactasia)” (Venter Pharma, S.L., priority 2012, dated 2015)
“And” between values parts separate entries of the source, which are not always exact repeats. Equal values may be shown once. “Also recorded” adds a separate entry of the source.

Key:
[1] = Safety and tolerance of the 4-GX doses; format: in vivo, human; conditions: all doses of 4-GX used (0.125 g to 6 g oral)
Method: Two groups of subjects were selected. […] Firstly, the lowest suitable oral dose of 4-GX administered to healthy volunteers was determined that enabled reliable detection (in terms of accuracy and reproducibility) of xylose levels in urine and blood via the analytical method to be used. In addition, the tolerance of these subjects to the various doses of 4-GX used in the test and the pharmacokinetics for each dose administered were analysed, both in urine and blood. The doses of 4-GX used were: 0.125 g, 0.250 g, 0.5 g, 1 g, 3 g and 6 g in addition to placebo in 12 healthy volunteers with washout period between doses of between three and seven days. It should be appreciated that the 4-GX doses can include small quantities of water which remain subsequent to the drying process of the 4-GX product. For example, the 4-GX product can contain about 8 wt % to about 12 wt %, most likely about 10 wt % water, based on the total weight of the product. Accordingly, the aforementioned 4-GX doses administered would actually include 0.1125 g, 0.225 g, 0.45 g, 0.9 g, 2.7 g and 5.4 g of actual 4-GX product, respectively, if they contain 10 wt % water. […] In each study period, an ascending dose of 4-GX was administered and the serum and urine concentrations of xylose were measured at various times up to 8 hours following the administration of the drug.

intestinal lactase [2] = molecular target: T1, intestinal lactase (Homo sapiens, UniProt P09848); test: The three 4-GX tests (4-hour urine, 5-hour urine, blood) taken together; format: in vivo; conditions: all 4-GX tests; after correcting biopsy diagnosis
T1 construct: after its oral administration it is hydrolysed by the intestinal mucosa enzyme; from tissue; host or cells: small-intestinal mucosa (enterocyte brush border) of living human volunteers and patients, in vivo
Method: (§1) The diagnostic tests to which these patients were subjected were: • Intestinal biopsy: determining intestinal lactase activity therein. • Hydrogen breath test after the oral administration to patients of 50 g of lactose. While this test was being carried out, several capillary-blood glucose test (Glycemia tests) were carried out, calculating the highest increase observed in the blood glucose concentration compared to basal glucose level before starting the test. • 4-GX test in total urine at 0-4 and 0-5 hours, which was orally administered to patients 0.5 g of this product (or 0.45 g in a 4-GX sample including 10 wt % water), collecting the total urine accumulated over 0-4 h and 0-5 h following the administration of 4-GX and determining the amount of excreted xylose in both volumes of urine. • 4-GX test in blood which was orally administered to patients 3 g of this product (or 2.7 g in a 4-GX sample including 10 wt % water) to determine the concentration of plasma xylose in a blood sample 90 minutes after ingestion of the product. The concentration obtained was compared to a basal blood sample extracted before ingestion of 4-GX.
The 4-GX was orally administered in a single dose dissolved in 100 ml of water. […]

intestinal lactase [3] = molecular target: T1, intestinal lactase; test: 4-GX test in 90-minutes blood, patients with symptoms suggestive of lactose intolerance; format: in vivo
Method: as §1
The 4-GX was orally administered in a single dose dissolved in 100 ml of water.
The blood samples were centrifuged to obtain plasma in which the analysis of the amount of xylose present was performed.
From the data obtained from the various urine tests for intestinal lactase deficiency following oral ingestion of 4-GX described in the present invention, a descriptive statistical analysis was performed of the amount of xylose excreted in the urine up to 4 hours and up to 5 hours following said administration. The same was done with the blodd test for intestinal lactase activity following oral ingestion of 4-GX, where descriptive statistical analysis was performed on the amount of xylose present in the plasma of subjects at 90 minutes following administration of 4-GX. The net increase in the plasma xylose concentration compared to basal values was also calculated.
To obtain the statistical parameters of lactase determination using the various 4-GX tests described in the present invention and later to compare them with the results obtained from the intestinal biopsy test, hydrogen in exhaled air test and capillary-blood glucose test, the normal limits of the measurement of the total amount of xylose excreted in 4-hour and 5-hour urine and the concentration of blood xylose after 90 minutes following ingestion of 4-GX described in Table 5 were used. The normal limits for the other tests were those used in common clinical practice for the diagnosis of lactose intolerance (Arola, H. (1994) Diagnosis of hypolactasia and lactose malabsorption. Scand. J. Gastroenterol. […] (Suppl), 26-35), which are:
For the measurement of lactase by intestinal biopsy, the lower normal limit is established at 10 units/g protein, with values less than this being considered positive.

[4] = 3 g 4-GX, 90-min blood, lactase in intestinal biopsy as gold standard
[5] = 3 g 4-GX, plasma at 90 min, cut-off 0.97 mg/dL, 205 patients
[6] = blood, after correcting biopsy diagnosis
[7] = blood, after correction of the biopsy diagnostic result (five discrepancies)
[8] = blood, after correction of the biopsy diagnostic result (four discrepancies)
[9] = blood, final criteria of Table 9

T1 sequence (P09848 869-1927): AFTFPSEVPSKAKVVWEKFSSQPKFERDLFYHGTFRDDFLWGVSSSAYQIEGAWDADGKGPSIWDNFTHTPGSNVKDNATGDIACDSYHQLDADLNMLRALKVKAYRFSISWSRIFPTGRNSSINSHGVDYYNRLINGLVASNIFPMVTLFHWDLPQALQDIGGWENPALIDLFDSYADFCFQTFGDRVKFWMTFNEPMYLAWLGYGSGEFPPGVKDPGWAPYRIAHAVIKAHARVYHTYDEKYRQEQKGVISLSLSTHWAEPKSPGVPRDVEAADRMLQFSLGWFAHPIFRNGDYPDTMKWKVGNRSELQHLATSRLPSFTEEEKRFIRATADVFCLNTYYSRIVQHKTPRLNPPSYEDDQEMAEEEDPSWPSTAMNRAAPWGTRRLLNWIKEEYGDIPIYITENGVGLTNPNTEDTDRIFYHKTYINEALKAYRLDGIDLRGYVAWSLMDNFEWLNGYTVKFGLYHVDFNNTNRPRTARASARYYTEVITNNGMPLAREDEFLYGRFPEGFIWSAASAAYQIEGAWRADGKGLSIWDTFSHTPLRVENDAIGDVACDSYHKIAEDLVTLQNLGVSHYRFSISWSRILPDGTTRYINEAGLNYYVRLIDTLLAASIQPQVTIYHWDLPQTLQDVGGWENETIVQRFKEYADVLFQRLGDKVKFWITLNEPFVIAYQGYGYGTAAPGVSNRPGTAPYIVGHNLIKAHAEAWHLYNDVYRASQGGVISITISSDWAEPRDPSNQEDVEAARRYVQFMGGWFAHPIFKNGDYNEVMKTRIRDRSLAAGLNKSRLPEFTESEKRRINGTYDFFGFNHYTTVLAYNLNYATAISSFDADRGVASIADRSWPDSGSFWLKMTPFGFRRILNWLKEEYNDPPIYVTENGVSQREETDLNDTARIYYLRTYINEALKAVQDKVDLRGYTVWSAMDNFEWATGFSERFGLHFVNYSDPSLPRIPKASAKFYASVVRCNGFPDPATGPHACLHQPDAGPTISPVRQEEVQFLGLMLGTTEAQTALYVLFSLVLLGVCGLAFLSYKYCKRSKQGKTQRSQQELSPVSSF

O=C[C@H](O)[C@@H](O)[C@@H](CO)O[C@@H]1O[C@H](CO)[C@H](O)[C@H](O)[C@H]1O [4-GX, 4-O-β-galactopyranosyl-D-xylose]
adverse reactions, safety and tolerance [1]: safe and innocuous; also recorded: no clinically significant adverse reactions were found | recalculated values for sensitivity, specificity, positive and negative predictive values (intestinal lactase [2]): above 95% | Negative predictive value (intestinal lactase [3]; [4]): 91.8% and 91.75% | Positive predictive value (intestinal lactase [3]; [4]): 93.4% | Sensitivity (intestinal lactase [3]; [4]): 92.5% and 92.52% | Specificity (intestinal lactase [3]; [4]): 92.7% and 92.71% | No. Negative (intestinal lactase [3]; [5]): 97 | No. Positive (patients presenting intestinal lactase deficiency) (intestinal lactase [3]; [5]): 106 | Percentage of patients negative (intestinal lactase [3]; [5]): 48% | Percentage of patients positive (intestinal lactase [3]; [5]): 51.7% and 52% | sensitivity calculated using the ROC curves (intestinal lactase [3]; blood samples): 92.5% | specificity calculated using the ROC curves (intestinal lactase [3]; blood samples): 92.7% | range of recalculated sensitivity, specificity, positive and negative predictive values (intestinal lactase [3]; blood test, after correcting biopsy diagnosis): 97.94-98.11 | false negatives (intestinal lactase [3]; [6]): 1.89% | negative likelihood ratio (intestinal lactase [3]; [6]): 0.019 | positive likelihood ratio (intestinal lactase [3]; [6]): 47.585 | Negative predictive value (intestinal lactase [3]; [7]): 97.94% | Positive predictive value (intestinal lactase [3]; [7]): 98.11% | Sensitivity (intestinal lactase [3]; [7]): 98.11% | Specificity (intestinal lactase [3]; [7]): 97.94% | Negative predictive value (intestinal lactase [3]; [8]): 98.97% | Positive predictive value (intestinal lactase [3]; [8]): 99.06% | Sensitivity (intestinal lactase [3]; [8]): 99.06% | Specificity (intestinal lactase [3]; [8]): 98.97% | area under the ROC curve (intestinal lactase [3]; blood, biopsy as gold standard): 0.9268 | false negatives (intestinal lactase [3]; blood, biopsy as gold standard): 7.5% | false positives (intestinal lactase [3]; blood, biopsy as gold standard): 7.3% | concordant positive results, percentage (intestinal lactase [3]; [9]): 97.2% | final number of concordant positive results (intestinal lactase [3]; [9]): 104 | negative results (concordant), percentage (intestinal lactase [3]; [9]): 96.9% | number of negative results (concordant) (intestinal lactase [3]; [9]): 95
